Test results as given in article PMC9398717, “Comparison of Pharmacokinetic Profiles of 14 Major Bioactive Components in Normal and Arthritic Model Rats after Oral Administration of Angelicae pubescentis Radix by UPLC-MS/MS” (Evidence-based Complementary and Alternative Medicine : eCAM, 2022).

Assay: Pharmacokinetic study in normal and arthritic model rats after oral administration of APR extract (UPLC-MS/MS of plasma)
Settings: for Cmax / MRT last / half-life / Tmax: Sprague-Dawley, rat, po, 4.1 mL/kg; for Cmax: C max; for MRT last: MRT0-t; for Tmax: t max
Experimental: One hundred grams of the APR sample was extracted by reflux with 800 mL 50% ethanol/water (v/v) for 3 times (2 hours each time), then combined with the filtrate and concentrated under vacuum with heat, and the concentration of APR extract was 0.37 g/mL. All the sample solutions were stored at 4°C before analysis.
Twelve SD rats were randomly divided into two groups (n = 6) and named as the model group and the normal group, respectively. The arthritic model was established by injecting 0.1 mL of complete Freund's adjuvant in rats. As a control, 0.1 mL of saline was injected. After 7 days, the plasma levels of MDA and TNF-α in normal and model rats were measured by an enzyme-linked immunosorbent assay kit to determine whether the modeling was successful.
The ultrahigh performance liquid chromatography (Thermo Scientific™, Vanquish™, (Waltham, MA, USA)) was used for the chromatographic analysis. UPLC separation was achieved on a Thermo Hypersil GOLD C18 column (100 mm × 2.1 mm, 1.9 μm), which was maintained at 35°C.
The UPLC was interfaced to a Thermo TSQ QUANTIS triple quadrupole mass spectrometer and equipped with an electrospray ionization (ESI) probe working in positive and negative ion exchange scanning mode.
Acetonitrile was used as a precipitation solvent, and protein precipitation was used to handle with the plasma samples. […] Then, the supernatant was dried in a nitrogen environment at 45°C, and the remaining residue was recombined with 100 μL 50% methanol aqueous and vortex for 1 min. Finally, 2 μL supernatant was injected into the UPLC-MS/MS system for analysis.

[1] = in vivo, arthritic model rats (complete Freund's adjuvant), oral APR extract 4.1 mL/kg, plasma, mean ± SD, n = 6
[2] = in vivo, normal rats, oral APR extract 4.1 mL/kg, plasma, mean ± SD, n = 6
[3] = plasma, arthritic model rats (complete Freund's adjuvant), oral APR extract 4.1 mL/kg, mean ± SD, n = 6
[4] = plasma, normal rats, oral APR extract 4.1 mL/kg, mean ± SD, n = 6
[5] = plasma, t 1/2, arthritic model rats (complete Freund's adjuvant), oral APR extract 4.1 mL/kg, mean ± SD, n = 6
[6] = plasma, t 1/2, normal rats, oral APR extract 4.1 mL/kg, mean ± SD, n = 6
[7] = oral APR, concentration-time curve

Compound	Cmax [3] [ng/mL]	Cmax [4] [ng/mL]	MRT last [3] [h]	MRT last [4] [h]	half-life [5] [h]	half-life [6] [h]	Tmax [3] [h]	Tmax [4] [h]	change of AUC0-t in model rats compared with normal rats (model vs normal rats, oral APR)	change of Cmax in model rats compared with normal rats (model vs normal rats, oral APR)	change of MRT in model rats compared with normal rats (model vs normal rats, oral APR)	change of CL in model rats compared with normal rats (model vs normal rats, oral APR)	further results
COc1c2occc2cc2ccc(=O)oc12 [Xanthotoxin, xanthotoxin]													Cmax [1]: 528 ± 35 ng/mL; Cmax [2]: 554 ± 76 ng/mL; MRT last [1]: 10.3 ± 0.51 h; MRT last [2]: 10.7 ± 0.53 h; half-life (in vivo, t 1/2, arthritic model rats (complete Freund's adjuvant), oral APR extract 4.1 mL/kg, plasma, mean ± SD, n = 6): 14.2 ± 3.76 h; half-life (in vivo, t 1/2, normal rats, oral APR extract 4.1 mL/kg, plasma, mean ± SD, n = 6): 12.1 ± 1.73 h; Tmax [1]: 3.33 ± 1.03 h; Tmax [2]: 4.33 ± 0.82 h
O=C(C=Cc1ccc(O)c(O)c1)OC1CC(O)(C(=O)O)CC(O)C1O (stereo not drawn) [Neochlorogenic acid]	531 ± 24.1	420 ± 58.6	15.6 ± 0.26	15.6 ± 0.68	31.8 ± 10.2	39.9 ± 16.5	0.23 ± 0.03	0.2 ± 0.04					change in the pharmacokinetic parameters in normal and model rats (model vs normal rats, oral APR): no significant change
O=C(/C=C/c1ccc(O)c(O)c1)O[C@H]1[C@H](O)C[C@](O)(C(=O)O)C[C@H]1O [Cryptochlorogenic acid, cryptochlorogenic acid]	189 ± 8.7	143 ± 4.63	19.5 ± 0.55	18.3 ± 0.46	48.4 ± 10.5	34.5 ± 17.6	0.45 ± 0.1	0.42 ± 0.12	increased	increased	longer		change of t1/2 in model rats compared with normal rats (model vs normal rats, oral APR): longer
C/C=C(/C)C(=O)OC(C)(C)[C@@H]1Cc2c(ccc3ccc(=O)oc23)O1 [Columbianadin, columbianadin]	1500 ± 48.2	1680 ± 222	11.5 ± 0.87	12.3 ± 0.57	16.5 ± 4.83	16.4 ± 3.96	0.23 ± 0.03	0.23 ± 0.03				decreased	
O=C(C=Cc1ccc(O)c(O)c1)OC1CC(O)(C(=O)O)CC(OC(=O)C=Cc2ccc(O)c(O)c2)C1O (stereo not drawn) [3,5-diCQA, isochlorogenic acid A]	405 ± 49.2	293 ± 47.7	18.8 ± 0.49	21.1 ± 0.68	59.5 ± 17.2	33.9 ± 14.3	0.18 ± 0.03	0.18 ± 0.03	decreased	increasing			change of AUC0-∞ in model rats compared with normal rats (model vs normal rats, oral APR): increasing; change of t1/2 in model rats compared with normal rats (model vs normal rats, oral APR): prolonging
O=c1ccc2cc3ccoc3cc2o1 [Psoralen, psoralen]	327 ± 42.5	210 ± 27.6	12.9 ± 0.22	14.3 ± 0.31	5.98 ± 0.44	9.8 ± 3.28	7.66 ± 0.81	8 ± 1.26			shortened	decreased	
O=C(/C=C/c1ccc(O)c(O)c1)O[C@@H]1C[C@](O)(C(=O)O)C[C@@H](O)[C@H]1O [Chlorogenic acid, chlorogenic acid]	2760 ± 264		8.68 ± 0.52	5.95 ± 0.28	52 ± 13.2	27.9 ± 14.8	0.45 ± 0.1	0.54 ± 0.36	increased	increased	longer		change of t1/2 in model rats compared with normal rats (model vs normal rats, oral APR): longer; C max (normal rats, oral APR extract 4.1 mL/kg, plasma, mean ± SD, n = 6): 1669.61 ± 25.80 ng/mL
COc1ccc2ccc(=O)oc2c1CC=C(C)C [Osthol, osthol]	4560 ± 272	3640 ± 286	6.94 ± 0.42	6.53 ± 0.29	6.42 ± 0.69	13.4 ± 0.51	0.91 ± 0.2	1.16 ± 0.4				decreased	
CC(C)(O)[C@@H]1Cc2c(ccc3ccc(=O)oc23)O1 [Columbianetin, columbianetin]	2220 ± 168	3120 ± 242	12.1 ± 0.2	13.3 ± 0.36	6.07 ± 1.28	6.04 ± 0.12	9 ± 1.09	9.67 ± 0.82	decreased	decreased	shortened	increased	change of AUC0-∞ in model rats compared with normal rats (model vs normal rats, oral APR): decreased
O=C(/C=C/c1ccc(O)c(O)c1)O[C@@H]1[C@H](O)C[C@@](O)(C(=O)O)C[C@H]1OC(=O)/C=C/c1ccc(O)c(O)c1 [3,4-diCQA, isochlorogenic acid B]	79.7 ± 7.11	85.7 ± 8.14	19.8 ± 0.4	21.2 ± 0.73	84.5 ± 24.3	58 ± 12	0.29 ± 0.1	0.29 ± 0.1	decreased				
COc1c2ccoc2cc2oc(=O)ccc12 [Bergapten, bergapten]	518 ± 42.9	383 ± 95.8	7.11 ± 0.09	9.4 ± 0.34	7.16 ± 0.41	9.41 ± 2.12	4.67 ± 1.03	3.67 ± 0.82			shortened	decreased	time of first plasma peak after administration of APR [7]: 5 min; time of second plasma peak after administration of APR [7]: 4 h
CC(C)=CCOc1c2ccoc2cc2oc(=O)ccc12 [Isoimperatorin, isoimperatorin]	232 ± 21	224 ± 26.8	15.7 ± 0.65	15.1 ± 0.57	26.8 ± 5.46	26.9 ± 8.34	0.58 ± 0.2	0.58 ± 0.2					
